The subject of series [1] is red clover HDT (HDT1). Description: In vitro hydroxycinnamoyl-CoA transferase activity assay with crude E. coli extracts containing recombinant HDT, products by HPLC with PDA and MS. The series is classed as biochemical, red clover (Trifolium pratense L.). To be noted: p-coumaroyl-, caffeoyl- or feruloyl-CoA donor; HPLC with PDA and MS detection. As to the method:
General in vitro reactions for hydroxycinnamoyl-CoA transferase activity contained 100mM sodium phosphate buffer (pH 7.5), 25 to 50mM ascorbate, 1 to 2mM p-coumaroyl-, caffeoyl-, or feruloyl-CoA donor substrate, 1 to 6mM acceptor substrate (L-amino acids, shikimic acid, or malic acid), and red clover leaf or E. coli extract. When red clover extract was the enzyme source, reaction head space was exchanged for nitrogen to prevent oxidation of caffeoyl and L-DOPA moieties by endogenous PPO. Reactions were incubated at 30°C for up to 1h prior to being stopped by the addition of one-fifth volume of 10% formic acid. Precipitated protein was removed by centrifugation (17,000×g for 5min at room temperature) and the supernatant analyzed for reaction products by HPLC as described above.
Crude E. coli extracts containing the recombinant proteins were incubated with hydroxycinnamoyl-CoAs and acceptors, and the reactions were analyzed by HPLC with PDA and MS detection. […] In the case of caffeoyl-L-Tyr and caffeoyl-L-DOPA, where authentic compound was available for purchase, the in vitro-formed products were indistinguishable from the purchased standards in terms of retention time, UV absorption spectrum, and (m/z). For caffeoyl-L-Tyr, we also produced sufficient compound via an HDT1-mediated reaction to carry out ^1H and ^13C NMR to further confirm product identity (Supplementary Figure S2). Chemical shifts were consistent with those previously published for this compound ([Stark and Hofmann, 2005]). […] We only tested L-amino acids with HDT1, since this is what is present in clovamide and what is most abundantly present in nature. […] In this case, ability of the D-amino acid substrates to serve as acceptor substrates could be due to their structural (including stereochemistry) similarity to the D-phenyllactic acid acceptor also used by this enzyme.

Series [2] concerns the target red clover HDT1 (Trifolium pratense, UniProt A0A384ZRD3). Description: Determination of kinetic parameters of HDT (initial rates by release of free CoA, DTNB, purified histidine-tagged HDT1). Particulars: for kcat / Km: variable acceptor substrate; for Km: pH 8.0, 25°C. The method, then:
Kinetic parameters for HDT were determined by measuring initial reaction rates by release of free CoA in real time using DTNB [5,5′-dithio-bis-(2-nitrobenzoic acid)] and spectroscopy as detailed elsewhere ([Sullivan and Bonawitz, 2018]). Measurements were made in a temperature-controlled spectrophotometer at 25°C. Reactions were carried out in 100mM sodium phosphate, 1mM EDTA, pH 8.0. Acceptor substrates were prepared in 1N HCl as 66.7×stock solutions, so an equal amount of 1N NaOH was added to reactions to neutralize the HCl (15mM final). Substrate and enzyme amounts used are detailed in Table 2.
All kinetic data analyses were carried out using GraphPad Prism version 7 or higher for Mac OS (GraphPad Software, La Jolla, CA, United States). Each analysis (i.e., series of substrate concentrations) was carried out in duplicate on different days with freshly prepared substrate and enzyme dilutions. Data were analyzed by non-linear regression of the replicated data. […] Kinetic parameters are reported±standard error (SE) as determined from the non-linear regression.
More limited analyses (explained below) were carried out with L-Phe and L-Leu acceptor substrates.

Substrate in series [3]: N[C@@H](Cc1ccc(O)c(O)c1)C(=O)O
The series can be described thus: purified protein, by the assay type. To be noted: other: variable acceptor substrate, pH 8.0, 25°C.

Substrate in series [4]: N[C@@H](Cc1ccc(O)cc1)C(=O)O
Description: purified protein, by the assay type. To be noted: other: variable acceptor substrate, pH 8.0, 25°C.

The mark [5] stands for this setting: constant substrate FA-CoA (20μM).
The mark [6] stands for this setting: constant substrate p-CA-CoA (20μM).
Setting [7] is: constant substrate CA-CoA (50μM).

Broadly, the kcat is the number of substrate molecules converted per active site and unit of time at saturation. Broadly, the Km is the concentration of substrate that gives half-maximal velocity. As a reminder, the kcat/Km is the second-order rate constant that governs catalysis at low substrate concentration.

Turning to `O=C(O)CC(O)C(=O)O` (stereo not shown) [malic acid], the “Use as acceptor substrate (product formation with hydroxycinnamoyl-CoA donors)” value (shortened to “Use as acceptor substrate”) in series [1] was “No reaction products were seen”.

With `NCCc1ccc(O)cc1` [tyramine], in series [1], the “Use as acceptor substrate” value is recorded as “no reaction products were seen”.

`N[C@@H](Cc1ccc(O)c(O)c1)C(=O)O` [L-DOPA, L-3,4-dihydroxyphenlylalanine]: in series [1], the “Use as acceptor substrate” value is recorded as “capable of transferring”. In addition, the turnover number (kcat) in series [2] (setting [5]) was found to be 0.75 ± 0.015 s⁻¹; in series [2] (setting [6]), 2.00 ± 0.022 s⁻¹.

Take `N=C(N)NCCC[C@H](N)C(=O)O` [arginine]: the “Use as acceptor substrate” value in series [1] was “no product was detected”.

`N[C@@H](Cc1ccc(O)cc1)C(=O)O` [L-Tyr, L-tyrosine]: in series [1], the “Use as acceptor substrate” value is reported as “capable of transferring”. The “catalytic efficiency, fold higher compared to L-DOPA as acceptor” value in series [2] (acceptor substrate comparison) is on record as “about 10 fold”.

In the case of `CC(C)C[C@H](N)C(=O)O` [L-Leu, L-leucine], the “Use as acceptor substrate” value in series [1] was “can also serve as acceptors”. Also, in series [2] (setting [7]), the Km is over 10000 µM.

Take `N[C@@H](Cc1c[nH]c2ccccc12)C(=O)O` [L-Trp, L-tryptophan]: in series [1], the “Use as acceptor substrate” value is “can also serve as acceptors”. Moreover, the catalytic constant (kcat) in series [2] (setting [7]) came to 1.21 ± 0.007 s⁻¹; in series [2] (setting [5]), 0.35 ± 0.007 s⁻¹; in series [2] (setting [6]), 1.00 ± 0.009 s⁻¹. Also, the Km in series [2] (setting [7]) is 1250 ± 26.7 µM; in series [2] (setting [5]), 273 ± 24.1 µM; in series [2] (setting [6]) it was 2160 ± 63.4 µM.

`N[C@@H](Cc1ccccc1)C(=O)O` [L-Phe, L-phenylalanine]: the “Use as acceptor substrate” value in series [1] is “capable of transferring”. The Km in series [2] (setting [7]) was over 10000 µM.

B1: red clover HDT1 (Trifolium pratense) (protein)
chain: MVTIIASHTVIPEEPTPQGPFWLSDMDQVVRIRDVPTLYIYKTPKKNQENKNIVETFKNSLSKILVHYYPIAGRLCYIEGGRLELNLNAKGAILVEAETEKTMNDYGDFSHFDTIKELVPMIDYNQPIEEIPNFVVQLTNFKNNEGFAIGVAFLHPLSDGLGAIKFINSWAKIARGETLEANELPFLDRKLLKFSHTPLEPRFEHLELKPLPLILGRKDASEEKEKKTSATLLKLSSEQVDKLKKKANEEDVLGIQKKEYSRPYSKFEVISAHIWRCASKARELEDNQESVIRFIADVKNRMIPPLPKNYFGNALTQTATKGYIGEITSKPLGYVAQKIREATELINDEYIRSQIDVVRSFEHLDDARKMFIGEKARYFGNPNFNLTSWLSMPVYEADFGWGKPNYFGLADVSPHDRAVILLSPDDDGSVLVSFHFQIAHMELFNKYFYEEI
As for B1, the Michaelis constant (Km) was found to be 2465.0 ± 65.88 µM in series [3] (setting [7]); 150.0 ± 7.65 µM in series [3] (setting [5]); 989.8 ± 35.92 µM in series [3] (setting [6]); 342.0 ± 14.37 µM in series [4] (setting [7]); 14.4 ± 0.64 µM in series [4] (setting [5]); 145.3 ± 5.56 µM in series [4] (setting [6]). In addition, the kcat in series [4] (setting [7]) came to 9.12 ± 0.114 s⁻¹; in series [4] (setting [5]) it was 0.69 ± 0.006 s⁻¹; in series [4] (setting [6]), 2.74 ± 0.027 s⁻¹. Besides, the kcat/Km is 26700 ± 1170 M⁻¹ s⁻¹ in series [4] (setting [7]), 47900 ± 2160 M⁻¹ s⁻¹ in series [4] (setting [5]) and 18900 ± 750 M⁻¹ s⁻¹ in series [4] (setting [6]).

(Values after paper PMC8641662 (Frontiers in Plant Science, 2021).)
